Results on four molecules are retold here after publication PMC10845205, “Discovery of novel antibacterial agent for the infected wound treatment: all-hydrocarbon stapling optimization of LL-37” (Theranostics, 2024).

≈ marks a conversion by molar mass, not a printed value. Positions of bridges follow the written chain, without caps; N, C: chain ends. Non-standard residues stand in square brackets, D forms with d. Residues, ends and D or L forms follow the SMILES beside them. S5 = C=CCCC[C@](C)(N)C(=O)O A value given as a limit tells only on which side of the number the result lay.

One data set concerns NIH-3T3 cell. The conditions noted are these: 24 h. The protocol: For development of the stapled KR-12 derivatives to treat bacterial infections in vivo, their cytotoxicity was examined via the CCK-8 assay, which could provide a quantitative assessment of cell viability based on the dehydrogenase activity. The mouse embryonic fibroblast NIH-3T3 cell was selected and incubated with various concentrations of KR-12 and its stapled derivatives.
Mouse embryonic fibroblast cells NIH-3T3 and mouse monocyte macrophage leukemia cells RAW264.7 were obtained from Shanghai Institute of Biochemistry and Cell Biology, Chinese Academy of Sciences. These two cells were maintained in DMEM and RPMI-1640, respectively. Both media were supplemented with 10% FBS and 1% 100 U/mL penicillin-streptomycin solution. Cells were maintained at 37 °C in a 5% CO2 and humidified incubator. Replace the culture medium every day until the cell grows to confluence. Cells were then treated with 0.25% trypsin–EDTA and split using fresh medium for either passage or analysis.
CCK-8 cell counting kit was utilized to examine the cytotoxicity of the linear and stapled peptides. NIH-3T3 cell was planked at a density of 1.5×10^4 cell/well in a 96 - well plate and incubated it for 24 hours at 37 °C. Cells were then treated with different concentrations of peptides in fresh DMEM and incubated for 24 hours before the addition of 10 μL CCK -8 and incubation for a further 1 hour. Measure the absorbance at 450nm using a microplate reader (BioTek, USA) and calculate the percentage of cell viability as: cell viability (%) = (Abspeptide-Absblank)/(Abscontrol-Absblank)×100%, where Abscontrol is the absorbance of cells treated with PBS and Abs blank is the absorbance of the cell-free medium. The data was fitted using the nonlinear regression within

The next data set relates to K. pneumoniae. As to conditions: 24 h. The protocol: (§1) According to the protocol of Clinical & Laboratory Standards Institute, the minimum inhibitory concentration (MIC) of the linear and stapled peptides against a panel of gram-positive and gram-negative bacteria was determined by the broth microdilution method. […]
(§2) Bacterial strains and culture
(§3) Bacterial type stains ATCC 25923 S. aureus, ATCC 12228 S. epidermidis, ATCC […]
(§4) aeruginosa and ATCC 13883 K. pneumoniae were obtained from Shanghai Bioresource Collection Center. The bacterial culture medium was purchased from Oxoid and autoclaved according to the instructions from manufacturer. The isolated strains were cultured in Mueller Hinton II broth and continuously shaken at 140 rpm for 18 hours to the middle of the exponential growth phase at 37 °C with an OD value of 0.4-0.5.
(§5) Bacterial suspensions with an OD value of 0.1, approximately […], were then diluted for further assays.
(§6) The minimal inhibition concentration (MIC) of the linear and stapled peptides was determined using the microbroth dilution method from the Clinical and Laboratory Standards Institute (CLSI)[2, 3]. Bacterial suspensions of 10 6 CFU/mL were prepared in MH-II broth and peptide solutions at varying concentrations were prepared in phosphate buffer saline (PBS). Then 50 μL peptide solution and 50 μL bacterial suspension were mixed in a 96 -well plate. Plates were incubated for 24 hours at 37 °C.
(§7) 10 μL AlamarBlue cell viability reagent (ThermoFisher Scientific, UK) was added to each well, then the plate was re -incubated for a further 2 hours at 37 °C. The MIC was recorded as the minimum concentration of peptides required to completely in hibit bacteria growth. For serum stability assessment, the peptide solutions were pre - incubated with 50% human serum for 4 h before the MIC determination. Experiments were performed in 3 independent measurements. […]

The next data set has as its system S. aureus. The conditions noted are these: 24 h. On the procedure: as §1, §2, §3, §4, §5, §6, §7
A further data set concerns A. baumannii. As to conditions: 24 h. On the procedure: as §1, §2, §3, §4, §5, §6, §7
For the next data set, the system named is S. epidermidis. The conditions noted are these: 24 h. The protocol:
as §1, §2, §3, §4, §5, §6, §7

Another data set concerns P. aeruginosa. The conditions noted are these: 24 h. The protocol:
as §1, §2, §3, §4, §5, §6, §7

In the next data set the test system is E. coli. The conditions noted are these: 24 h. On the procedure:
as §1, §2, §3, §4, §5, §6, §7

In another data set the test system is E. faecalis. The conditions noted are these: 24 h. The protocol: as §1, §2, §3, §4, §5, §6, §7
The nature of the next data set: Serum stability assay. Format: in vitro ADME, human. As to conditions: human serum, 2 mg/mL peptide in pH 7.4 PBS mixed with serum 1:4, 37 °C, up to 48 h, RP-HPLC UV 220 nm, 3 independent measurements. The source says: Maintaining high stability and presenting high compatibility in the complex physiological environment are important criterions for the clinical translation of AMPs. […] The derivatives were mixed with human serum in pH 7.4 PBS, simulating the degradation process of peptides by proteases in vivo. The percentages of intact derivatives were monitored and determined with time according to the PR-HPLC. […]
Serum stability of the linear and stapled peptides was examined by RP -HPLC as previously described. 2 mg/mL peptide solution was prepared in pH 7.4 PBS and incubated with human serum (Gemini, USA) to the final volume ratio of 1:4 at 37 °C.
At various time intervals, 50 μL mixture was added to 50 μL ethanol to terminate the enzymatic hydrolysis. After centrifugation at 10,000 rpm for 10 minutes under 4 °C, […]
the supernatant was collected and analyzed by RP-HPLC, with a UV detector monitored at 220 nm. Record the peak area of the intact peptide and calculate the percentage of remaining peptide based on the integrated area as, Peptide remaining (%) = peak area of remaining peptide/peak area of intact peptide×100%. […]

Take `CC(=O)N[C@@H](CCCCN)C(=O)N[C@@H](CCCNC(=N)N)C(=O)N[C@@]1(C)CCCC=CCCC[C@@](C)(C(=O)N[C@@H](CCCCN)C(=O)N[C@@H](CC(=O)O)C(=O)N[C@@H](Cc2ccccc2)C(=O)N[C@@H](CC(C)C)C(=O)N[C@@H](CCCNC(=N)N)C(N)=O)NC(=O)[C@H](CCCNC(=N)N)NC(=O)[C@H](CCC(N)=O)NC(=O)[C@H](C(C)C)NC1=O` [KR-12 (I3, I7)] (Ac-KR[S5]VQR[S5]KDFLR-NH2; staple 3-7): the “IC50 against NIH-3T3 cell” value in the data set on NIH-3T3 cell amounted to 145.7 µg/mL (≈ 89 µM). Also, the “MIC K. pneumoniae” value against K. pneumoniae stood at 128 µg/mL (≈ 78.2 µM). Also, in the data set with S. aureus, the “MIC S. aureus” value amounted to 8 µg/mL (≈ 4.89 µM). The “MIC A. baumannii” value in the data set with A. baumannii was 32 µg/mL (≈ 19.5 µM). The “MIC S. epidermidis” value against S. epidermidis is 64 µg/mL (≈ 39.1 µM). For the same molecule, in the data set with P. aeruginosa, the “MIC P. aeruginosa” value worked out at 256 µg/mL (≈ 156 µM). In the data set on E. coli, the “MIC E. coli” value was 16 µg/mL (≈ 9.77 µM). Besides, in the data set with E. faecalis, the “MIC E. faecalis” value was 16 µg/mL (≈ 9.77 µM). In addition, in “Serum stability assay”, the “TD50 (time at which 50% of the peptide is degraded in the presence of serum)” value amounted to 4.21 h.

In the case of `CC[C@H](C)[C@H](NC(=O)[C@H](CCCNC(=N)N)NC(=O)[C@H](CCCCN)NC(C)=O)C(=O)N[C@H](C(=O)N[C@@H](CCC(N)=O)C(=O)N[C@@H](CCCNC(=N)N)C(=O)N[C@@]1(C)CCCC=CCCC[C@@](C)(C(=O)N[C@@H](CCCNC(=N)N)C(N)=O)NC(=O)[C@H](Cc2ccccc2)NC(=O)[C@H](CC(=O)O)NC(=O)[C@H](CCCCN)NC1=O)C(C)C` [KR-12 (I7, L11)] (Ac-KRIVQR[S5]KDF[S5]R-NH2; staple 7-11), the “IC50 against NIH-3T3 cell” value in the data set on NIH-3T3 cell stood at 212.8 µg/mL (≈ 130 µM). The “MIC K. pneumoniae” value against K. pneumoniae is 256 µg/mL (≈ 156 µM). Further, the “MIC S. aureus” value against S. aureus is 32 µg/mL (≈ 19.5 µM). Besides, the “MIC A. baumannii” value in the data set with A. baumannii is 64 µg/mL (≈ 39.1 µM). Also, the “MIC S. epidermidis” value against S. epidermidis turned out to be 128 µg/mL (≈ 78.2 µM). In addition, in the data set on P. aeruginosa, the “MIC P. aeruginosa” value came out at 256 µg/mL (≈ 156 µM). Moreover, the “MIC E. coli” value with E. coli stood at 32 µg/mL (≈ 19.5 µM). In the data set on E. faecalis, the “MIC E. faecalis” value worked out at 32 µg/mL (≈ 19.5 µM). Also, the “TD50 (time at which 50% of the peptide is degraded in the presence of serum)” value in the data set “Serum stability assay” turned out to be 11.44 h.

Consider `CC[C@H](C)[C@@H]1NC(=O)[C@H](CCCNC(=N)N)NC(=O)[C@@](C)(NC(=O)[C@@H](NC(=O)[C@@H](NC(=O)[C@H](CCCNC(=N)N)NC(=O)[C@H](CCCCN)NC(C)=O)[C@@H](C)CC)C(C)C)CCCC=CCCC[C@@](C)(C(=O)N[C@@H](Cc2ccccc2)C(=O)N[C@@H](CC(C)C)C(=O)N[C@@H](CCCNC(=N)N)C(N)=O)NC(=O)[C@H](CCCCN)NC1=O` [KR-12 (Q5, D9)] (Ac-KRIV[S5]RIK[S5]FLR-NH2; staple 5-9), for which the “IC50 against NIH-3T3 cell” value with NIH-3T3 cell is 168.5 µg/mL (≈ 104 µM). Besides, the “MIC K. pneumoniae” value in the data set with K. pneumoniae came to 128 µg/mL (≈ 79 µM). Further, in the data set with S. aureus, the “MIC S. aureus” value was found to be 8 µg/mL (≈ 4.94 µM). The “MIC A. baumannii” value in the data set on A. baumannii stood at 16 µg/mL (≈ 9.88 µM). The “MIC S. epidermidis” value against S. epidermidis was 16 µg/mL (≈ 9.88 µM). The “MIC P. aeruginosa” value with P. aeruginosa turned out to be 64 µg/mL (≈ 39.5 µM). Also, in the data set on E. coli, the “MIC E. coli” value was determined as 8 µg/mL (≈ 4.94 µM). The “MIC E. faecalis” value in the data set on E. faecalis was determined as 8 µg/mL (≈ 4.94 µM). Moreover, the “TD50 (time at which 50% of the peptide is degraded in the presence of serum)” value in “Serum stability assay” was determined as 8.91 h.

On to `CC[C@H](C)[C@H](NC(=O)[C@]1(C)CCCC=CCCC[C@](C)(NC(=O)[C@H](CCCCN)NC(C)=O)C(=O)N[C@@H]([C@@H](C)CC)C(=O)N[C@@H](C(C)C)C(=O)N[C@@H](CCC(N)=O)C(=O)N1)C(=O)N[C@@H](CCCCN)C(=O)N[C@@H](CC(=O)O)C(=O)N[C@@H](Cc1ccccc1)C(=O)N[C@@H](CC(C)C)C(=O)N[C@@H](CCCNC(=N)N)C(N)=O` [KR-12 (R2, R6)] (Ac-K[S5]IVQ[S5]IKDFLR-NH2; staple 2-6), for which, in the data set with NIH-3T3 cell, the “IC50 against NIH-3T3 cell” value came out at 78.3 µg/mL (≈ 50.5 µM). Besides, the “MIC K. pneumoniae” value with K. pneumoniae was > 256 µg/mL. For the same molecule, the “MIC S. aureus” value in the data set on S. aureus turned out to be 128 µg/mL (≈ 82.5 µM). Moreover, in the data set with A. baumannii, the “MIC A. baumannii” value is > 256 µg/mL. In the data set with S. epidermidis, the “MIC S. epidermidis” value stood at 128 µg/mL (≈ 82.5 µM). Besides, the “MIC P. aeruginosa” value with P. aeruginosa is > 256 µg/mL. For the same molecule, the “MIC E. coli” value with E. coli is >256 µg/mL. Moreover, in the data set with E. faecalis, the “MIC E. faecalis” value amounted to 128 µg/mL (≈ 82.5 µM). The “TD50 (time at which 50% of the peptide is degraded in the presence of serum)” value in “Serum stability assay” stood at 2.38 h.
